Entries after “also recorded” stand apart in the source; their conditions may differ.
Columns and labels:
p44/42 Erk1/2 = experiment: IL-2-mediated p44/42 Erk1/2 phosphorylation in PHA-activated T cells; type: cell-based; conditions: human T-cells, 2 hours drug
Experimental: (§1) Solubilization of membrane proteins, immunoprecipitation, and Western blot analysis. Frozen cell pellets were thawed on ice and solubilized in 1% TX-100 lysis buffer (10^8 cells/ml) and clarified by centrifugation, as previously described.^16 For human T-cells, supernates were incubated rotating end over end for 2 hours at 4° C. with either 5 μl/ml polyclonal rabbit antisera raised against peptides derived from the unique COOH-termini of Jak3 (amino acid [a.a.] 1104-1124), carboxyl termini of human Stat5a (a.a. 775-794) or Stat5b (a.a. 777-787).^26 Ab and immunoprecipitated proteins were captured by incubation for 30 minutes with Protein A-Sepharose beads (Pharmacia, Piscataway, N.J.), sedimented for purification, and eluted by boiling in 2×SDS-sample buffer (20% Glycerol, 10% 2-Mercaptoethanol, 4.6% SDS, 0.004% Bromophenol blue in 0.125 M Tris pH 6.8) for 4 minutes. For phosphoMapk assays, approximately 25 μg of total cell lysate was dissociated in SDS-sample buffer and separated on 10% (all others on 7.5%) SDS-PAGE under reducing conditions. […]

PDGFRα = PDGFRα (Homo sapiens, UniProt P16234); experiment: Kinase substrate phosphorylation (FIG. 9C); type: biochemical; conditions: 10 or 50 μM
PDGFRα, sequence (P16234 24-1089, species assumed): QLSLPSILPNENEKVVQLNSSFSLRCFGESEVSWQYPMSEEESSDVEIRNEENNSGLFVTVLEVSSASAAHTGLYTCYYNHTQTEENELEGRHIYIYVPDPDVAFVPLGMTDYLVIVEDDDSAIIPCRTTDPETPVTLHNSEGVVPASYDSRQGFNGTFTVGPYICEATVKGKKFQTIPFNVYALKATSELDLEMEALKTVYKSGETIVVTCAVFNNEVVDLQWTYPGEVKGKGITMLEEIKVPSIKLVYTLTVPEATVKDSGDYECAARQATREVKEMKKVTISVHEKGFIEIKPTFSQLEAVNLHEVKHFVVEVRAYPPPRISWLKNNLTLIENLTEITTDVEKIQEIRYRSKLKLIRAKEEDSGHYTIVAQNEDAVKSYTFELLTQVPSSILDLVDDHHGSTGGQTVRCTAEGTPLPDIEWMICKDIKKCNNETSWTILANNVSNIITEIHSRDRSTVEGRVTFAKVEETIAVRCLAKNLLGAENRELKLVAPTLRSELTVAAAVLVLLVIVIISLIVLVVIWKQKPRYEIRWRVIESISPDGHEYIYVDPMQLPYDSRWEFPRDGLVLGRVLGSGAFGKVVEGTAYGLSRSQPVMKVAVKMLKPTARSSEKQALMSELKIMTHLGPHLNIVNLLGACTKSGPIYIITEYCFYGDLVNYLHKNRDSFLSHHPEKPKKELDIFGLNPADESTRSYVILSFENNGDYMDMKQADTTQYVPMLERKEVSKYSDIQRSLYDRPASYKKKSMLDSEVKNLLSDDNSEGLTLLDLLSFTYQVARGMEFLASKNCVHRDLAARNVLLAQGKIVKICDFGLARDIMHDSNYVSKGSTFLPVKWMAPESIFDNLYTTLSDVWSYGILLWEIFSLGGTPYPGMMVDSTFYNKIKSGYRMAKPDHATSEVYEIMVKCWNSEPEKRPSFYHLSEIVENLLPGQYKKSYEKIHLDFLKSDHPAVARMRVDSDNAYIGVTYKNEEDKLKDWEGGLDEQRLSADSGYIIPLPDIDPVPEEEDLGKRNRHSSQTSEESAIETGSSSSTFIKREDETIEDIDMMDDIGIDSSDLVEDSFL
Experimental: (§2) Non-Jak3 mediated NfκB activation by TNF-α was not affected within the same treatment set (lower panel). […] Prolactin [PRL] (+) or (−) indicates whether the cells were stimulated with prolactin with Jak2 activation. Phosphotyrosine Western blots detect Jak2-Stat5 activation but no inhibition by 649641P (NC1153). […] 649641P (NC1153) was tested at 10 (open bars) or 50 μM (filled bars) to block growth factor tyrosine kinases (FGFR3 and PDGFRα), Src family tyrosine kinases (Src, Fyn, Lck, Yes, Zap70) or serine threonine kinases (PKC and PKA) phosphorylation of a substrate. The activity of the control is plotted as a dashed line.
(§3) In FIG. 9A, it can be seen that NC1153 inhibits Jak3 driven transcription factor-Stat5a/b in PHA activated T-cells treated with increasing concentrations of NC1153 in a dose dependent manner as measured via EMSA analysis (upper panel). The lane identified as “cold compete” contains unlabeled probe. However, non-Jak3 mediated NfκB activation (lower panel) by TNF-α was not affected within the same treatment set. […] Rat Nb2 cells were treated with increasing concentration of NC1153 and then stimulated with prolactin. Phosphotyrosine Western blots detect activation but no inhibition by NC1153. […] Activity of the control is plotted as a dashed line.

Fyn [1] = biological target: T1, Fyn (Homo sapiens, UniProt P06241); experiment: Kinase substrate phosphorylation (FIG. 9C); type: biochemical; conditions: 10 or 50 μM
Experimental: as §2, §3
Target sequence in this assay (P06241 whole entry, species assumed): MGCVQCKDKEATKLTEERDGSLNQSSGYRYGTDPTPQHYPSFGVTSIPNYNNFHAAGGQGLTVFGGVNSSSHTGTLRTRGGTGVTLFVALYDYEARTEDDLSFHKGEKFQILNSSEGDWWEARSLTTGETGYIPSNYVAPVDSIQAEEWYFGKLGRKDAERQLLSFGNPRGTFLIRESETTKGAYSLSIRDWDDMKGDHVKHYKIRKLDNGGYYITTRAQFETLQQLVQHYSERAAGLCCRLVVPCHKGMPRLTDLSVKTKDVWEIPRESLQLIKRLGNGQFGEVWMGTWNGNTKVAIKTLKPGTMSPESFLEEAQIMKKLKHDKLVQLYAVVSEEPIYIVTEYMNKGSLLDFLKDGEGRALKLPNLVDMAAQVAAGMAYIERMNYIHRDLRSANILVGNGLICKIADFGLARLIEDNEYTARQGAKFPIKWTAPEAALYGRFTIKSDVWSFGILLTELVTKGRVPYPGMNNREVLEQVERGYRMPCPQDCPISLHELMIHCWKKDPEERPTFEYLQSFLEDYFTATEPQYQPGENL

Fyn [2] = biological target: T1, Fyn; experiment: Tyrosine phosphorylation of activated Fyn in YT cells; type: cell-based; parameters: Cellular extracts were immunoprecipitated with anti-Fyn or anti-Lck antibodies; endogenous in cells; host or cells: YT cells; conditions: 1-100 μM, 2 hours
Target sequence in this assay (P06241 whole entry): as the sequence (P06241 whole entry, species assumed) above

[3] = test system: Jak2/Stat5a signaling pathway; experiment: Prolactin-stimulated Jak2/Stat5a signaling in rat Nb2 cells (phosphotyrosine Western blot); type: cell-based; conditions: increasing concentration, PRL stimulated
Experimental: as §1
In FIG. 9A, it can be seen that NC1153 inhibits Jak3 driven transcription factor-Stat5a/b in PHA activated T-cells treated with increasing concentrations of NC1153 in a dose dependent manner as measured via EMSA analysis (upper panel). […]

Stat5a/b = experiment: IL-2 activated Stat5a/b tyrosine phosphorylation in YT cells (Western blot); type: cell-based, human; conditions: phospho-Western blots
Experimental: as §1

## CN(C)CC1CCCCCCCCCC(CN(C)C)C1=O (mixture of isomers) [649641P (NC1153)]
p44/42 Erk1/2
  IL2-mediated Erk1/2 phosphorylation / activation: blocks IL2-mediated Erk1/2 activation; also recorded: inhibited tyrosine phosphorylation
PDGFRα
  PDGFRα phosphorylation of a substrate: fails to affect the activity
PDGFRα; listed as NC1153
  PDGFRα phosphorylation of a substrate: fails to affect activity
Fyn [1]
  Fyn phosphorylation of a substrate: fails to affect the activity
Fyn [1]; listed as NC1153
  Fyn phosphorylation of a substrate: fails to affect activity
Fyn [2]
  activity (tyrosine phosphorylation) of Fyn: no effect; also recorded: does not block the activity; also recorded: did not inhibit
[3]
  Jak2/Stat5a activation by prolactin: fails to inhibit
Stat5a/b
  tyrosine phosphorylation of Stat5a/b: inhibited tyrosine phosphorylation

— patent US7365096B2, “Methods for selectively inhibiting Janus tyrosine kinase 3 (Jak3)” (Board of Regents, The University of Texas System, priority 2002, dated 2008)
